US20230064292A1, “METHODS OF TREATING PSMA-POSITIVE CANCER USING RADIONUCLIDE THERAPY” (priority 2020, published 2023)
“Also recorded” adds a separate entry of the source. Marks after values point to notes of the source that are not given here.

Legend:
PSMA+ tumors = test: Tumor dosimetry and uptake by SPECT imaging in patients; format: in vivo, human
Excerpt: In addition to assessing radiation exposure to dose limiting organs, it is also feasible to use SPECT/CT or SPECT/MRI imaging and dosimetry to estimate CTT1403 dose to the tumor, which could indicate efficacy.
CTT1057 PSMA+ PET is used to screen patients for PSMA avid tumors prior to enrollment into the clinical trial. SPECT/CT images are collected serially on days 1, 3, 5 and 8 following CTT1403 dose administration to assess dosimetry, or exposure of normal organs and the tumor to the radionuclide, 177-lutetium. […] FIGS. 2-7 show the PET images collected prior to and after CTT1403 and serial SPECT/CT images collected from patients enrolled in the clinical trial. Further, Table 4 compares the doses in kidney and tumor reported by Violet et al (Violet, J., et al., “Dosimetry of (177)Lu-PSMA-617 in Metastatic Castration-Resistant Prostate Cancer: Correlations Between Pretherapeutic Imaging and Whole-Body Tumor Dosimetry with Treatment Outcomes” J Nucl Med, 2019. 60(4): p. 517-523) compared to findings to date in patients administered CTT1403.

[1] = system: PSMA-expressing PC3-PIP cells; test: Cellular uptake and internalization in PSMA-expressing PC3-PIP cells; format: cell-based
Excerpt: The PSMA binding scaffold of PSMA binds irreversibly to the extracellular enzymatic domain of PSMA leading to rapid internalization by PSMA-expressing cancer cells. Tumor cell uptake of CTT1403 is ˜84% after just 2½ hours (FIG. 1), compared to less than 40% tumor cell uptake of ^177Lu-PSMA-617 (structure shown below), in PSMA-expressing PC3-PIP cells.
Given that 99% of cell bound CTT1403 is internalized, compared to just 15% of ^177Lu-PSMA-617, targeting by CTT1403 is expected to confer a significant therapeutic advantage. This greater uptake will allow treatment of smaller tumors for a longer time. Both irreversible binding and cellular internalization increases exposure of target tissue to the therapeutic agent. Greater accumulation in the target tissue will permit a lower efficacious dose and/or dosing frequency, thus reducing a patient's total clinical exposure to the radionuclide and improving the therapeutic index.

[2] = system: prostate specific antigen (PSA); test: PSA levels in patients after CTT1403 administration; format: in vivo, human
Experimental: In order to investigate the pharmacokinetics of CTT1403, doses were administered by IV to fifteen subjects. The subjects each had histologically confirmed prostate adenocarcinoma that was metastatic and castration resistant (mCRPA). Subjects with de novo small cell carcinoma of the prostate were excluded. The subjects further had at least three metastatic foci avid for PSMA-specific PET agent CTT1057 or 68Ga-PSMA-11 uptake. PSMA avidity was defined as SUVmax>mediastinal blood pool. The subjects had received docetaxel, were ineligible for docetaxel, or had refused docetaxel. They all further had progression by the PCWG3 criteria during or after treatment with abiraterone, enzalutamide, and/or apalutamide, and had serum testosterone<50 ng/dL. Subjects without a history of bilateral orchiectomy were required to remain on a luteinizing hormone-releasing hormone (LHRH) analog during the course of the protocol therapy.
Reduction in prostate specific antigen (PSA) at least 12 weeks after therapeutic administration is generally thought to be predictive of therapeutic efficacy. PSA levels at screening, at CTT1403 administration and at specified time points after CTT1403 administration are shown for selected patients enrolled in the trial, including patients still actively under observation (Patients 13, 14, 15). Reduction in PSA compared to Cycle 1, Day 1 has been observed in 4 patients to date: Patient 002 (75% maximum reduction), Patient 4 (40% maximum reduction), Patient 13 (14% reduction to date) and Patient 15 (9% reduction to date).

[3] = Physical examination and monitoring for adverse events in the clinical trial; format: in vivo, human; settings: to date
[4] = CTT1403 (7.5 GBq +/− 10%), preliminary, 2 tumors per patient in patients 14 and 15
[5] = patient 1, dose 0.73 GBq (19.6 mCi)
[6] = patient 4, dose 3.0 GBq (81.1 mCi)
[7] = patient 6, dose 2.98 GBq (80.5 mCi)
[8] = patient 14, dose 7.98 GBq (215.7 mCi)
[9] = patient 15, dose 7.77 GBq (210 mCi)

O=C(O)CC[C@H](NP(=O)(O)OCCC[C@H](NC(=O)CC[C@H](NC(=O)CCCCCNC(=O)CCC(NC(=O)CCOCCOCCOCCOCCNC(=O)CCC(=O)N1Cc2ccccc2-c2c(nnn2CCCNC(=O)CN2CCN3CCN4CCN(CC2)CC(=O)[O][177Lu]([O]C(=O)C3)[O]C(=O)C4)-c2ccccc21)C(=O)NC(CCCCNC(=O)CCCc1ccc(I)cc1)C(=O)O)C(=O)O)C(=O)O)C(=O)O (stereo partly drawn) [CTT1403]
CTT1403 within tumor by SPECT (PSMA+ tumors; 4.5 GBq, through 7 days post-administration (FIG. 9, patient 12)): uptake of CTT1403 in tumors; also recorded: still clearly present | uptake of CTT1403 in tumors by SPECT (PSMA+ tumors; 24 hours after administration of 7.5 GBq (FIG. 10, patient 17)): distinct uptake | Tumor Dose to date, Dose Gy/GBq (PSMA+ tumors; [4]): 1.948* Gy/GBq | Tumor Dose to date, Mean Dose (Gy) (PSMA+ tumors; [4]): 14.61* Gy | tumor dose (PSMA+ tumors; administered by 3.0 GBq): ~1 Gy | Tumor 1 (Gy) (PSMA+ tumors; [5]): 0.122 Gy | Tumor 2 (Gy) (PSMA+ tumors; [5]): 0.1164 Gy | Tumor 1 (Gy) (PSMA+ tumors; patient 2, dose 1.5 GBq (40.5 mCi)): 0.2461 Gy | Tumor 2 (Gy) (PSMA+ tumors; patient 3, dose 2.03 GBq (54.8 mCi)): 0.2553 Gy | Tumor 1 (Gy) (PSMA+ tumors; [6]): 1.282 Gy | Tumor 2 (Gy) (PSMA+ tumors; [6]): 0.3729 Gy | Tumor 3 (Gy) (PSMA+ tumors; [6]): 1.906 Gy | Tumor 1 (Gy) (PSMA+ tumors; patient 5, dose 2.95 GBq (79.8 mCi)): 1.639 Gy | Tumor 1 (Gy) (PSMA+ tumors; [7]): 1.104 Gy | Tumor 2 (Gy) (PSMA+ tumors; [7]): 0.329 Gy | Tumor 1 (Gy) (PSMA+ tumors; [8]): 13.6 Gy | Tumor 2 (Gy) (PSMA+ tumors; [8]): 12.7 Gy | Tumor 1 (Gy) (PSMA+ tumors; [9]): 22.4 Gy | Tumor 2 (Gy) (PSMA+ tumors; [9]): 9.74 Gy | tumor dose compared to 177Lu-PSMA-617 (PSMA+ tumors; patients at 7.5 GBq+/−10%, early reported): at least similar and possibly even greater | tumor Gy/GBq compared to 177Lu-PSMA-617 in patients with PSA<50% (PSMA+ tumors; vs patients with less than a 50% reduction in circulating PSA): significantly outperform | cell bound agent that is internalized ([1]; PSMA-expressing PC3-PIP cells): 99% | Tumor cell uptake ([1]; after 2½ hours, PSMA-expressing PC3-PIP cells (FIG. 1)): ~84% | Reduction in PSA compared to Cycle 1, Day 1 ([2]; Patient 002, maximum reduction): 75% | Reduction in PSA compared to Cycle 1, Day 1 ([2]; Patient 4, maximum reduction): 40% | Reduction in PSA compared to Cycle 1, Day 1 ([2]; Patient 13, reduction to date): 14% | Reduction in PSA compared to Cycle 1, Day 1 ([2]; Patient 15, reduction to date): 9% | PSA Result ([2]; patient 2 (1.50 GBq), 4 Weeks Post Treatment): 405.6 µg/L | PSA Result ([2]; patient 2 (1.50 GBq), 8 Weeks Post Treatment): 167.013 µg/L | PSA Result ([2]; patient 2 (1.50 GBq), 12 Weeks Post Treatment): 45.716 µg/L | PSA Result ([2]; patient 2 (1.50 GBq), Cycle 1-Day 1): 162.353 µg/L | PSA Result ([2]; patient 2 (1.50 GBq), Cycle 1-Day 22): 185.132 µg/L | PSA Result ([2]; patient 2 (1.50 GBq), Cycle 2-Day 1): 194.320 µg/L | PSA Result ([2]; patient 2 (1.50 GBq), End of Treatment): 215.919 µg/L | PSA Result ([2]; patient 4 (3.00 GBq), 8 Weeks Post Treatment): 41.80 µg/L | PSA Result ([2]; patient 4 (3.00 GBq), Cycle 1-Day 1): 65.684 µg/L | PSA Result ([2]; patient 4 (3.00 GBq), Cycle 1-Day 22): 77.876 µg/L | PSA Result ([2]; patient 4 (3.00 GBq), End of Treatment): 115.658 µg/L | PSA Result ([2]; patient 4 (3.00 GBq), Screening (before dosing)): 70.228 µg/L | PSA Result ([2]; patient 13 (5.99 GBq), Cycle 1-Day 1): 146.133 µg/L | PSA Result ([2]; patient 13 (5.99 GBq), Cycle 1-Day 22): 148.217 µg/L | PSA Result ([2]; patient 13 (5.99 GBq), Cycle 2-Day 1): 135.620 µg/L | PSA Result ([2]; patient 13 (5.99 GBq), Cycle 2-Day 22): 126.392 µg/L | PSA Result ([2]; patient 13 (5.99 GBq), Screening (before dosing)): 166.793 µg/L | PSA Result ([2]; patient 14 (7.98 GBq), Cycle 1-Day 1): 22.642 µg/L | PSA Result ([2]; patient 14 (7.98 GBq), Cycle 1-Day 22): 142 µg/L | PSA Result ([2]; patient 14 (7.98 GBq), Screening (before dosing)): 16.310 µg/L | PSA Result ([2]; patient 15 (7.77 GBq), Cycle 1-Day 1): 595.739 µg/L | PSA Result ([2]; patient 15 (7.77 GBq), Cycle 1-Day 22): 543.5 µg/L | PSA Result ([2]; patient 15 (7.77 GBq), Screening (before dosing)): 410.363 µg/L | serious adverse events after receipt of CTT1403 [3]: no serious adverse events
